Reference: PubChem BioAssay (NCI)
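Protocol summary: plate cells (96-well), add compound at 5 concentrations, incubate 48 h, interpolate endpoints linearly. TGI marks complete inhibition of growth.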

Columns and labels:
Assay in all cases: DTP human tumour cell line panel, 48 h
RPMI-8226 leukemia = system: RPMI-8226 leukemia
TK-10 renal = system: TK-10 renal
PC-3 prostate = system: PC-3 prostate
UO-31 renal = system: UO-31 renal
HS 578T breast = system: HS 578T breast
HCC-2998 colon = system: HCC-2998 colon
K-562 leukemia = system: K-562 leukemia
HL-60(TB) leukemia = system: HL-60(TB) leukemia
NCI/ADR-RES ovarian = system: NCI/ADR-RES ovarian
EKVX NSCLC = system: EKVX NSCLC
SNB-75 CNS = system: SNB-75 CNS
IGROV1 ovarian = system: IGROV1 ovarian
HOP-62 NSCLC = system: HOP-62 NSCLC
SR leukemia = system: SR leukemia
MDA-MB-231 breast = system: MDA-MB-231 breast
SK-MEL-5 melanoma = system: SK-MEL-5 melanoma
COLO 205 colon = system: COLO 205 colon
M14 melanoma = system: M14 melanoma
CCRF-CEM leukemia = system: CCRF-CEM leukemia
SK-OV-3 ovarian = system: SK-OV-3 ovarian
HT29 colon = system: HT29 colon
NCI-H460 lung = system: NCI-H460 lung
MDA-N = system: MDA-N
OVCAR-4 ovarian = system: OVCAR-4 ovarian
SF-295 CNS = system: SF-295 CNS
T-47D breast = system: T-47D breast
OVCAR-8 ovarian = system: OVCAR-8 ovarian
NCI-H522 lung = system: NCI-H522 lung
SF-539 CNS = system: SF-539 CNS
KM12 colon = system: KM12 colon
MCF7 breast = system: MCF7 breast
SW-620 colon = system: SW-620 colon
SNB-19 CNS = system: SNB-19 CNS
UACC-257 melanoma = system: UACC-257 melanoma
HCT-15 colon = system: HCT-15 colon
MDA-MB-435 = system: MDA-MB-435
SF-268 CNS = system: SF-268 CNS
786-0 renal = system: 786-0 renal
ACHN renal = system: ACHN renal
U251 CNS = system: U251 CNS
A549 NSCLC = system: A549 NSCLC
SN12C renal = system: SN12C renal
OVCAR-5 ovarian = system: OVCAR-5 ovarian
MOLT-4 leukemia = system: MOLT-4 leukemia
HCT-116 colon = system: HCT-116 colon
SK-MEL-28 melanoma = system: SK-MEL-28 melanoma
UACC-62 melanoma = system: UACC-62 melanoma
NCI-H23 lung = system: NCI-H23 lung
OVCAR-3 ovarian = system: OVCAR-3 ovarian
CAKI-1 renal = system: CAKI-1 renal
SK-MEL-2 melanoma = system: SK-MEL-2 melanoma
BT-549 breast = system: BT-549 breast
DU-145 prostate = system: DU-145 prostate
LOX IMVI melanoma = system: LOX IMVI melanoma
A498 renal = system: A498 renal
MALME-3M melanoma = system: MALME-3M melanoma
NCI-H226 lung = system: NCI-H226 lung

CN(C)C12C=CC=CC3=C(c4ccccc4)C(c4ccccc4)=C(c4ccccc4)C31c1ccccc1C2 (stereo not given)
TGI (RPMI-8226 leukemia): > 100 µM
TGI (TK-10 renal): > 100 µM
TGI (PC-3 prostate): > 100 µM
TGI (UO-31 renal): > 100 µM
TGI (HS 578T breast): > 100 µM
TGI (HCC-2998 colon): > 100 µM
TGI (K-562 leukemia): > 100 µM
TGI (HL-60(TB) leukemia): > 100 µM
TGI (NCI/ADR-RES ovarian): > 100 µM
TGI (EKVX NSCLC): > 100 µM
TGI (SNB-75 CNS): > 100 µM
TGI (IGROV1 ovarian): > 100 µM
TGI (HOP-62 NSCLC): > 100 µM
TGI (SR leukemia): > 100 µM
TGI (MDA-MB-231 breast): > 100 µM
TGI (SK-MEL-5 melanoma): > 100 µM
TGI (COLO 205 colon): > 100 µM
TGI (M14 melanoma): > 100 µM
TGI (CCRF-CEM leukemia): > 100 µM
TGI (SK-OV-3 ovarian): > 100 µM
TGI (HT29 colon): > 100 µM
TGI (NCI-H460 lung): > 100 µM
TGI (MDA-N): > 100 µM
TGI (OVCAR-4 ovarian): > 100 µM
TGI (SF-295 CNS): > 100 µM
TGI (T-47D breast): > 100 µM
TGI (OVCAR-8 ovarian): > 100 µM
TGI (NCI-H522 lung): > 100 µM
TGI (SF-539 CNS): > 100 µM
TGI (KM12 colon): > 100 µM
TGI (MCF7 breast): > 100 µM
TGI (SW-620 colon): > 100 µM
TGI (SNB-19 CNS): > 100 µM
TGI (UACC-257 melanoma): > 100 µM
TGI (HCT-15 colon): > 100 µM
TGI (MDA-MB-435): > 100 µM
TGI (SF-268 CNS): > 100 µM
TGI (786-0 renal): > 100 µM
TGI (ACHN renal): > 100 µM
TGI (U251 CNS): > 100 µM
TGI (A549 NSCLC): > 100 µM
TGI (SN12C renal): > 100 µM
TGI (OVCAR-5 ovarian): > 100 µM
TGI (MOLT-4 leukemia): > 100 µM
TGI (HCT-116 colon): > 100 µM
TGI (SK-MEL-28 melanoma): > 100 µM

Cc1ccc(N=NC(=O)NNc2ccc(C)cc2Br)c(Br)c1
TGI (RPMI-8226 leukemia): 66.5 µM
TGI (TK-10 renal): 86.6 µM
TGI (UACC-62 melanoma): 36.1 µM
TGI (PC-3 prostate): 72.5 µM
TGI (UO-31 renal): 77.2 µM
TGI (HCC-2998 colon): 31.3 µM
TGI (K-562 leukemia): 51.5 µM
TGI (HL-60(TB) leukemia): 63 µM
TGI (SNB-75 CNS): > 100 µM
TGI (IGROV1 ovarian): 63.8 µM
TGI (NCI-H23 lung): > 100 µM
TGI (HOP-62 NSCLC): 41.1 µM
TGI (SR leukemia): 90.1 µM
TGI (MDA-MB-231 breast): > 100 µM
TGI (SK-MEL-5 melanoma): 33.9 µM
TGI (M14 melanoma): 72 µM
TGI (CCRF-CEM leukemia): 21 µM
TGI (HT29 colon): > 100 µM
TGI (OVCAR-3 ovarian): 41.2 µM
TGI (CAKI-1 renal): > 100 µM
TGI (NCI-H460 lung): 47.3 µM
TGI (MDA-N): 48.3 µM
TGI (OVCAR-4 ovarian): > 100 µM
TGI (T-47D breast): > 100 µM
TGI (OVCAR-8 ovarian): 62 µM
TGI (SK-MEL-2 melanoma): 32 µM
TGI (BT-549 breast): 89.3 µM
TGI (NCI-H522 lung): 55.3 µM
TGI (MCF7 breast): 41.3 µM
TGI (SW-620 colon): > 100 µM
TGI (SNB-19 CNS): > 100 µM
TGI (UACC-257 melanoma): 79.8 µM
TGI (DU-145 prostate): 74 µM
TGI (HCT-15 colon): 65.3 µM
TGI (LOX IMVI melanoma): 34.5 µM
TGI (A498 renal): 52.3 µM
TGI (MALME-3M melanoma): 36.4 µM
TGI (MDA-MB-435): > 100 µM
TGI (SF-268 CNS): 97.2 µM
TGI (786-0 renal): 42.4 µM
TGI (ACHN renal): 89.1 µM
TGI (U251 CNS): 34.9 µM
TGI (A549 NSCLC): > 100 µM
TGI (SN12C renal): 51.2 µM
TGI (OVCAR-5 ovarian): 68.4 µM
TGI (MOLT-4 leukemia): 60.4 µM
TGI (HCT-116 colon): 24.6 µM
TGI (SK-MEL-28 melanoma): 47.4 µM
TGI (NCI-H226 lung): 62.8 µM
